biological target: T1, human GPR40 (Homo sapiens, UniProt O14842); assay: Cell based aequorin assay using human GPR40; conditions: CHO cells stably transfected with GPR40 and aequorin; 0.01% HSA; aequorin luminescence; read-out: Relative EC50
T1 construct: host or cells: CHO cells
Protocol: Cell-based aequorin assays were employed to characterize the modulatory activity of compounds on the GPR40 signaling pathway. In an exemplary assay, CHO cells were stably transfected with both GPR40 and Aequorin (Euroscreen). Cells were detached from the tissue culture dish with 2 mL of trypsin (0.25% (w/v)). Trypsinization was halted with 28 mL of Hanks Buffered Salt Solution containing 20 mM Hepes (H/HBSS) and 0.01% fatty acid-free human serum albumin (HSA). Coelantrazine was added to 1 ug/mL, and the cells were incubated for 2 hours at room temperature. Compounds were dissolved in DMSO for preparation of 10 mM stock solutions. Compounds were diluted in H/HBSS containing either 0.01% HSA. Serial dilutions of the test compounds were prepared to determine dose response.
Aequorin luminescence measurements were made using an EG&G Berthold 96-well luminometer, and the response was measured over a 20 second interval after cells and compounds were mixed. The maximum relative light units was plotted to determine dose response. The EC50 (effective concentration to reach 50% maximal response) was determined from the dose response plot.
Table 1 presents representative data (EC50 values) obtained for exemplary compounds of the invention for the relative activation of human GPR40. […]

T1 sequence (O14842 whole entry): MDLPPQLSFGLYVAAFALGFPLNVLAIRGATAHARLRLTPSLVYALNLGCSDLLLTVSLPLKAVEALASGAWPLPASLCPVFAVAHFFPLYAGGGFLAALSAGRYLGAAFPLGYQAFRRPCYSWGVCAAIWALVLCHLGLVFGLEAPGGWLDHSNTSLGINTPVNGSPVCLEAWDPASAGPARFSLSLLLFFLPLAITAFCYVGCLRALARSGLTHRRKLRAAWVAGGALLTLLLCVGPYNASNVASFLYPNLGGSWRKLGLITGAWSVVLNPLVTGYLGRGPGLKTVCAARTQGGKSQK

First: CCCCOc1ccc(C)cc1-c1ccc(COc2ccc([C@H](CC(=O)O)C(=O)N(C)C)cc2)cc1
Second: CCCCOc1ccc(C)cc1-c1ccc(COc2ccc([C@H](CC(=O)O)c3nccn3C)cc2)cc1
The EC50 of the first is lower: 10 to 100 nM for the first, 100 to 1000 nM for the second.

`Cc1nc(-c2ccc(C(F)(F)F)cc2)sc1COc1ccc([C@H](CC(=O)O)C(=O)N(C)C)cc1` and `Cc1ccc(-c2nc(C)c(COc3ccc([C@H](CC(=O)O)C(=O)N(C)C)cc3)s2)cc1` [Example 4, (S)-4-(dimethylamino)-3-(4-((4-methyl-2-p-tolylthiazol-5-yl)methoxy)phenyl)-4-oxobutanoic acid] fall in the same range of EC50: 10 to 100 nM for the first, 10 to 100 nM for the second.

`Cn1ccnc1C(CC(=O)O)c1ccc(OCc2cccc(-c3ccc(C(F)(F)F)cc3)c2)cc1` (centres unmarked) and `Cn1ncnc1[C@@H](CC(=O)O)c1ccc(OCc2cccc(-c3ccc(C(F)(F)F)cc3)c2)cc1` [Example 5, (S)-3-(2-methyl-2H-1,2,4-triazol-3-yl)-3-[4-(4′-trifluoromethyl-biphenyl-3-ylmethoxy)-phenyl]-propionic acid] fall in the same range of EC50: 100 to 1000 nM for the first, 100 to 1000 nM for the second.

`Cn1ccnc1C(CC(=O)O)c1ccc(OCc2cccc(Oc3ccccc3)c2)cc1` (centres unmarked) and `O=C(O)CC(c1ccc(OCc2cccc(Oc3ccccc3)c2)cc1)c1ncco1` (centres unmarked) fall in the same range of EC50: 100 to 1000 nM for the first, 100 to 1000 nM for the second.

`Cc1nc(-c2ccc(C(F)(F)F)cc2)sc1COc1ccc([C@H](CC(=O)O)c2nccn2C)cc1` and `Cc1nc(-c2ccc(C(F)(F)F)cc2)sc1COc1ccc([C@H](CC(=O)O)c2ncnn2C)cc1` fall in the same range of EC50: 100 to 1000 nM for the first, 100 to 1000 nM for the second.

`CCOc1cccc(-c2ccc(COc3ccc([C@H](CC(=O)O)c4nccn4C)cc3)cc2)c1` and `CCOc1cccc(-c2ccc(COc3ccc([C@H](CC(=O)O)c4ncnn4C)cc3)cc2)c1` fall in the same range of EC50: 100 to 1000 nM for the first, 100 to 1000 nM for the second.

`Cc1c(Cl)cccc1-c1cccc(COc2ccc([C@H](CC(=O)O)c3nccn3C)cc2)c1` and `Cc1ccc(Cl)cc1-c1cccc(COc2ccc([C@H](CC(=O)O)c3nccn3C)cc2)c1` fall in the same range of EC50: 10 to 100 nM for the first, 10 to 100 nM for the second.

`O=C(O)CC(c1ccc(OCc2cccc(-c3ccc(C(F)(F)F)cc3)c2)cc1)c1ncco1` (centres unmarked) and `Cn1nnnc1[C@@H](CC(=O)O)c1ccc(OCc2cccc(-c3ccc(C(F)(F)F)cc3)c2)cc1` [Example 7, (S)-3-(1-methyl-1H-tetrazol-5-yl)-3-[4-(4′-trifluoromethyl-biphenyl-3-ylmethoxy)-phenyl]-propionic acid] fall in the same range of EC50: 10 to 100 nM for the first, 10 to 100 nM for the second.

Compared with `CCCCOc1ccc(C)cc1-c1ccc(COc2ccc(C(CC(=O)O)c3ncco3)cc2)cc1` (centres unmarked), `CCCCOc1ccc(C)cc1-c1ccc(COc2ccc([C@@H](CC(=O)O)c3ncco3)cc2)cc1` is higher in EC50: 10 to 100 nM for the first, 100 to 1000 nM for the second.

`Cc1nc(-c2ccc(C(F)(F)F)cc2)sc1COc1ccc(C(CC(=O)O)c2ncco2)cc1` (centres unmarked) and `Cc1nc(-c2ccc(C(F)(F)F)cc2)sc1COc1ccc([C@H](CC(=O)O)c2nnnn2C)cc1` fall in the same range of EC50: 10 to 100 nM for the first, 10 to 100 nM for the second.

First: CCOc1cccc(-c2ccc(COc3ccc(C(CC(=O)O)c4ncco4)cc3)cc2)c1 (centres unmarked)
Second: CCCCOc1ccc(C)cc1-c1ccc(COc2ccc([C@H](CC(=O)O)c3ncco3)cc2)cc1 [Example 10, (S)-3-[4-(5′-methyl-2′-butoxybiphenylmethoxy)phenyl]-3-(oxazol-2-yl)propanoic acid]
The EC50 of the first is higher: 1000 to 10000 nM for the first, 10 to 100 nM for the second.

First: Cc1cc(Cl)ccc1-c1cccc(COc2ccc(C(CC(=O)O)c3ncco3)cc2)c1 (centres unmarked)
Second: Cc1cc(Cl)ccc1-c1cccc(COc2ccc([C@H](CC(=O)O)c3ncco3)cc2)c1
The EC50 of the first is higher: 100 to 1000 nM for the first, 10 to 100 nM for the second.

First: Cc1cc(Cl)ccc1-c1cccc(COc2ccc([C@@H](CC(=O)O)c3ncco3)cc2)c1
Second: Cc1cc(Cl)ccc1-c1cccc(COc2ccc([C@H](CC(=O)O)c3nccn3C)cc2)c1 [Example 9, (S)-3-[4-(4′-chloro-2′-methyl-biphenyl-3-ylmethoxy)-phenyl]-3-(1-methyl-1H-imidazol-2-yl)-propionic acid]
The EC50 of the first is higher: 1000 to 10000 nM for the first, 10 to 100 nM for the second. The second is the more potent here.

`CCCCOc1ccc(C)cc1-c1ccc(COc2ccc([C@H](CC(=O)O)c3ncnn3C)cc2)cc1` and `CCCCOc1ccc(C)cc1-c1ccc(COc2ccc([C@H](CC(=O)O)c3nnnn3C)cc2)cc1` fall in the same range of EC50: 10 to 100 nM for the first, 10 to 100 nM for the second.

Compared with `Cc1c(Cl)cccc1-c1cccc(COc2ccc([C@H](CC(=O)O)c3nnnn3C)cc2)c1`, `Cc1ccc(Cl)cc1-c1cccc(COc2ccc([C@H](CC(=O)O)c3nnnn3C)cc2)c1` is higher in EC50: less than 10 nM for the first, 10 to 100 nM for the second. The first is the more potent here.

`Cc1cc(Cl)ccc1-c1cccc(COc2ccc([C@H](CC(=O)O)C(=O)N(C)C)cc2)c1` [Example 3, (S)-3-[4-(4′-chloro-2′-methyl-biphenyl-3-ylmethoxy)-phenyl]-N,N-dimethyl-succinamic acid] and `Cc1cc(Cl)ccc1-c1cccc(COc2ccc([C@H](CC(=O)O)c3ncnn3C)cc2)c1` [Example 6, (S)-3-[4-(4′-chloro-2′-methyl-biphenyl-3-ylmethoxy)-phenyl]-3-(2-methyl-2H-1,2,4-triazol-3-yl)-propionic acid] fall in the same range of EC50: 10 to 100 nM for the first, 10 to 100 nM for the second.

`Cc1cc(Cl)ccc1-c1cccc(COc2ccc([C@H](CC(=O)O)c3nnnn3C)cc2)c1` [Example 8, (S)-3-[4-(4′-chloro-2′-methyl-biphenyl-3-ylmethoxy)-phenyl]-3-(1-methyl-1H-tetrazol-5-yl)-propionic acid] was tested, and the EC50 was 10 to 100 nM.

system: islet cells; assay: Insulin secretion assay in human islet cells; assay type: cell-based; conditions: human islet cells from cadaveric donors; KRBH with 11.2 mM glucose; insulin by SPA; read-out: EC50, stimulation of insulin secretion from islet cells
Protocol: Human islets were isolated from cadaveric donors. Islets were treated with trypsin (0.25% (w/v) and cells were seeded in 96-well plates containing 3,000 cells per well. Cells were cultured in Roswell Park Memorial Institute (RMPI) media containing 10% fetal bovine serum.
For determination of insulin secretion, media was removed from islet cells and replaced with Krebs-Ringer bicarbonate buffer containing 10 mM HEPES (KRBH) and 2 mM glucose. After one hour incubation, media was replaced with KRBH conaining 11.2 mM glucose and test compounds. Insulin released into the medium from the islet cells was measured using scintillation proximity assay (SPA).

`Cc1ccc(-c2nc(C)c(COc3ccc([C@H](CC(=O)O)C(=O)N(C)C)cc3)s2)cc1` [Example 4, (S)-4-(dimethylamino)-3-(4-((4-methyl-2-p-tolylthiazol-5-yl)methoxy)phenyl)-4-oxobutanoic acid] and `Cc1cc(Cl)ccc1-c1cccc(COc2ccc([C@H](CC(=O)O)c3nccn3C)cc2)c1` [Example 9, (S)-3-[4-(4′-chloro-2′-methyl-biphenyl-3-ylmethoxy)-phenyl]-3-(1-methyl-1H-imidazol-2-yl)-propionic acid] cannot be ordered by EC50: less than 1000 nM for the first, less than 1000 nM for the second.

From patent US7465804B2, “Compounds, pharmaceutical compositions and methods for their use in treating metabolic disorders” (Amgen Inc., priority 2005, dated 2008)
